The subject of assay [1] is S. aureus JE2 vraG mutant. Format: cell-based, Staphylococcus aureus. Particulars: 2-fold broth microdilution in TSB (100 µl), inoculum approx. 5 × 10^5 cells/ml, 37°C, 22 h. From the text:
(§1) The strains used in this study include S. aureus strain JE2 (plasmid-cured derivative of USA300 LAC) and all derivative strains within the Nebraska Transposon Mutant Library (NTML), consisting of 1,920 unique transposon mutants with inactivation of nonessential genes ([15]). The bursa aurealis transposon used to create the collection contains the resistance cassette ermB, which confers resistance to erythromycin ([15]). Additionally we used S. aureus SA113 and two derivatives, SA113 ΔdltA ([9]) and SA113 ΔmprF ([10]). All bacterial strains were cultured at 37°C in tryptic soy broth (TSB) or on tryptic soy agar (TSA), with antimicrobial agents added as indicated. Two methods have been employed to determine MICs to various antimicrobial agents. (i) A 2-fold broth microdilution assay in TSB (100 µl) with an initial inoculum of approximately 5 × 10^5 cells/ml was employed to determine the MICs of polymyxin B sulfate (Sigma), gallidermin (Santa Cruz Biotechnology), nisin (Sigma), bacitracin (Sigma), and LL-37 (Isca Biochemicals). (ii) An Etest (BioMérieux) performed on TSA plates was employed to determine MICs for polymyxin B, colistin, ciprofloxacin, oxacillin, linezolid, gentamicin, vancomycin, and daptomycin. The MIC was determined upon incubation at 37°C for 22 h. When indicated, the Etest (BioMérieux) was performed on Mueller-Hinton agar plates (cation adjusted for calcium and magnesium).
(In general: Broth dilution looks for growth in wells or tubes with falling amounts of substance.)

The subject of assay [2] is S. aureus JE2 (WT). The assay is classed as cell-based, Staphylococcus aureus. Particulars: 2-fold broth microdilution in TSB (100 µl), inoculum approx. 5 × 10^5 cells/ml, 37°C, 22 h.
From the text: as §1

In assay [3] the test system is S. aureus JE2 graR mutant. The assay is classed as cell-based, Staphylococcus aureus.
From the text: as §1

Assay [4] relates to S. aureus JE2 vraF mutant. Format: cell-based, Staphylococcus aureus.
From the text: as §1

For assay [5], the system named is S. aureus JE2 atpA mutant. Format: cell-based, Staphylococcus aureus. The note with it: 2-fold broth microdilution in TSB (100 µl), inoculum approx. 5 × 10^5 cells/ml, 37°C, 22 h.
From the text: as §1

For another assay, the system named is S. aureus. The note with it: cited from earlier work.
In assay [6] the test system is mitochondrial ATP synthase. The note with it: cited from earlier work.
For assay [7], the system named is S. aureus JE2 (WT). Put plainly: Kill curve experiment, polymyxin B with or without oligomycin A. The assay is classed as cell-based, Staphylococcus aureus. The note with it: WT JE2 in TSB; oligomycin A alone at 8 μg/ml. From the text: The ATP synthase is a well-described protein complex, and multiple inhibitors have been identified that interfere with its function—e.g., the macrolide oligomycin A ([32]). […] The combinatory efficacy of PMB and oligomycin A is similar to the observed killing efficacy of PMB against the atpA mutant.
FIG 4 Improved killing efficacy of PMB upon inhibition of the ATP synthase. […] The data represent the average from three measurements, with error bars showing 95% confidence intervals.
From overnight cultures of S. aureus JE2 and the derivative atpA mutant, 100 μl was diluted into 900 μl fresh TSB medium in a Falcon tube and grown for 1 h for the cells to reach the early exponential phase. After 1 h, the cultures were diluted into 10 ml fresh TSB medium in 100-ml Erlenmeyer flasks, reaching an initial cell count of approximately 10^6 cells/ml. Oligomycin A (Sigma) was added to flasks as indicated at a concentration of 8 μg/ml. […] CFU were determined on TSA plates before addition of oligomycin A (time zero [T0]), before addition of polymyxin B (time 30 min [T30]), and every hour for the following 4 h.

In brackets after ≈: the same amount, converted by molar mass.

As for `CC[C@H](C)[C@H](NC(=O)[C@H](CCCCN)NC(=O)[C@H](CCC(=O)O)NC(=O)[C@H](CCCCN)NC(=O)[C@H](CO)NC(=O)[C@H](CCCCN)NC(=O)[C@H](CCCNC(=N)N)NC(=O)[C@H](Cc1ccccc1)NC(=O)[C@H](Cc1ccccc1)NC(=O)[C@H](CC(=O)O)NC(=O)CNC(=O)[C@H](CC(C)C)NC(=O)[C@@H](N)CC(C)C)C(=O)NCC(=O)N[C@@H](CCCCN)C(=O)N[C@@H](CCC(=O)O)C(=O)N[C@@H](Cc1ccccc1)C(=O)N[C@@H](CCCCN)C(=O)N[C@@H](CCCNC(=N)N)C(=O)N[C@H](C(=O)N[C@H](C(=O)N[C@@H](CCC(N)=O)C(=O)N[C@@H](CCCNC(=N)N)C(=O)N[C@H](C(=O)N[C@@H](CCCCN)C(=O)N[C@@H](CC(=O)O)C(=O)N[C@@H](Cc1ccccc1)C(=O)N[C@@H](CC(C)C)C(=O)N[C@@H](CCCNC(=N)N)C(=O)N[C@@H](CC(N)=O)C(=O)N[C@@H](CC(C)C)C(=O)N[C@H](C(=O)N1CCC[C@H]1C(=O)N[C@@H](CCCNC(=N)N)C(=O)N[C@H](C(=O)N[C@@H](CCC(=O)O)C(=O)N[C@@H](CO)C(=O)O)[C@@H](C)O)C(C)C)[C@@H](C)CC)C(C)C)[C@@H](C)CC` [LL-37], the “MIC, vraG” value in assay [1] amounted to 128 µg/mL (≈ 28.5 µM). The “MIC, WT” value with S. aureus JE2 (WT) [2] was over 128 µg/mL. Also, the “MIC, graR” value in assay [3] (2-fold broth microdilution in TSB (100 µl), inoculum approx. 5 × 10^5 cells/ml, 37°C, 22 h, graR mutant) worked out at 64 µg/mL (≈ 14.2 µM). In addition, the “fold increased sensitivity relative to WT” value in assay [3] (graR mutant vs WT JE2, broth microdilution in TSB) is on record as “at least 2 fold”; in assay [4] (vraF mutant vs WT JE2, broth microdilution in TSB), “at least 2 fold”. The “MIC, vraF” value in assay [4] (2-fold broth microdilution in TSB (100 µl), inoculum approx. 5 × 10^5 cells/ml, 37°C, 22 h, vraF mutant) is 64 µg/mL (≈ 14.2 µM). The “MIC, atpA” value in assay [5] was over 128 µg/mL.

As for `COc1nc2ccc(Br)cc2cc1[C@@H](c1ccccc1)[C@@](O)(CCN(C)C)c1cccc2ccccc12` [Bedaquiline, bedaquiline], the “activity against S. aureus” value in the assay with S. aureus is “limited or no activity”.

In the case of oligomycin A, the “inhibition of the mitochondrial ATP synthase (nonselective)” value in assay [6] is “inhibits the mitochondrial ATP synthase”. In addition, the “killing efficacy (CFU over time)” value with S. aureus JE2 (WT) [7] is “did not display any killing efficacy”.

(Values after publication PMC5587909, “Inhibition of the ATP Synthase Eliminates the Intrinsic Resistance of Staphylococcus aureus towards Polymyxins” (mBio, 2017).)
